# Reference: the supplement of paper PMC11208160
# Test: recombinant barcode read abundance after kanamycin selection (control-corrected) (log10(CPM+1)); higher = more efficient recombination; sequences stand for … in AGTGCAGAGAAAATCGGCCAGTTTTCTCTGCCTGCAGTCCGCATGCCGT…AGATTTATGCAGCGGACTGCCTTTCTCCCAAAGTGATAAACCGGACAGTATCATGGACCGGTTTTCCCGGTAATCCGTATTTGCAAGGTTGGTTTCACT; site = the 11-nt target
# Protocol: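 Pooled E. coli target-specificity screen for the IS621 bridge recombinase. Each library plasmid pairs an 11-nt target (CT core) with a bridge RNA whose target-binding loop (9-nt LTG + 4-nt RTG) is reprogrammed; the rest of the 177-nt WT IS621 bridge RNA scaffold is fixed. The plasmid is co-electroporated with a WT donor plasmid; recombinase is induced with 0.1 mM IPTG and recombinants are selected on kanamycin. Recombinant barcodes are sequenced, converted to CPM, averaged over two biological replicates and corrected by the unselected control CPM. Molecule = full bridge RNA written as DNA: LTG = specificity nt 1-9, RTG = reverse complement of specificity nt 8-11, in the WT scaffold.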
# 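Note: IS621 recombinase and bridge RNA in Escherichia coli cells.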
row,Sequence,recombinant barcode read abundance (log10)
1,ACTAGACCTTGGGTTCTAACCTGTTGCCT (site ACTAGACCTAG),0.5
2,ACTAGACCTTGGGTTCTAACCTGTTGCCT (site ACTCGACCTAG),0.134
3,ACTAGGACTTGGGTTCTAACCTGTTGCGT (site ACTAGGACTAC),2.91
4,ACTAGGACTTGGGTTCTAACCTGTTGCGT (site ACTAGGACTCC),1.22
5,ACTAGGACTTGGGTTCTAACCTGTTGCGT (site ACTAGGACTGC),0.248
6,ACTAGGACTTGGGTTCTAACCTGTTGCGT (site ACTAGGACTTC),0.26
7,ACTAGGCCTTGGGTTCTAACCTGTTGCGG (site ACTAGGCCTCC),2.2
8,ACTAGGCCTTGGGTTCTAACCTGTTGCGG (site ACTATCCCTCC),0.0234
9,ACTAGGGCTTGGGTTCTAACCTGTTGCGG (site AATAGGGCTCC),0.729
10,ACTAGGGCTTGGGTTCTAACCTGTTGCGG (site ACTAGGGCTCC),3.25
11,ACTAGTCCTTGGGTTCTAACCTGTTGCCA (site ACTACTCCTTC),0.0602
12,ACTAGTCCTTGGGTTCTAACCTGTTGCCA (site ACTAGTCCTTG),0.326
13,ACTAGTCCTTGGGTTCTAACCTGTTGCTT (site ACTAGTCCTAA),0.294
14,ACTAGTCCTTGGGTTCTAACCTGTTGCTT (site ACTAGTCCTAC),0.143
15,ACTAGTCCTTGGGTTCTAACCTGTTGCTT (site ACTAGTCCTAG),0.189
16,ACTAGTCCTTGGGTTCTAACCTGTTGCTT (site ACTAGTCCTAT),0.316
17,ACTATCCCTTGGGTTCTAACCTGTTGCGG (site ACTAGGCCTCC),0.283
18,ACTATCCCTTGGGTTCTAACCTGTTGCGG (site ACTATCCCTCC),1.16

row,Sequence,recombinant barcode read abundance (log10)
1,ACTCGCTCTTGGGTTCTAACCTGTTGCAC (site ACTCGCTCTGT),1.5
2,ACTCGCTCTTGGGTTCTAACCTGTTGCAC (site GGGACTACTCG),0.0345
3,ACTCTGGCTTGGGTTCTAACCTGTTGCCT (site ACACTGGCTAG),0.0916
4,ACTCTGGCTTGGGTTCTAACCTGTTGCCT (site ACCCTGGCTAG),0.256
5,ACTCTGGCTTGGGTTCTAACCTGTTGCCT (site ACGCTGGCTAG),0.254
6,ACTCTGGCTTGGGTTCTAACCTGTTGCCT (site ACTCTGGCTAG),0.372
7,ACTGAGTCTTGGGTTCTAACCTGTTGCAA (site ACTGAGTCTAT),0.0772
8,ACTGAGTCTTGGGTTCTAACCTGTTGCAA (site ACTGAGTCTTT),1.87
9,ACTGATTCTTGGGTTCTAACCTGTTGCCT (site ACTGATACTAG),0.214
10,ACTGATTCTTGGGTTCTAACCTGTTGCCT (site ACTGATCCTAG),0.0546
11,ACTGATTCTTGGGTTCTAACCTGTTGCCT (site ACTGATGCTAG),0.0541
12,ACTGATTCTTGGGTTCTAACCTGTTGCCT (site ACTGATTCTAG),1.34
13,ACTGCGGCTTGGGTTCTAACCTGTTGCCT (site AATTCGGCTAG),0.136
14,ACTGCGGCTTGGGTTCTAACCTGTTGCCT (site ACTGCGGCTAG),0.617
15,ACTGCGTCTTGGGTTCTAACCTGTTGCCT (site ACTCCGTCTAG),0.119
16,ACTGCGTCTTGGGTTCTAACCTGTTGCCT (site ACTGCGTCTAG),1.6
17,ACTGCTCCTTGGGTTCTAACCTGTTGCCT (site ACTGCTCCTAG),0.881
18,ACTGCTCCTTGGGTTCTAACCTGTTGCCT (site CTCTGAGCTCT),0.0903
